{
  "source": "patent US20130097725A1",
  "about": "“SOYBEAN NODULATION FACTOR RECEPTOR PROTEINS, ENCODING NUCLEIC ACIDS AND USES THEREFOR” (The University of Queensland, priority 2005, published 2013)",
  "key": {"[1]": {"tested_on": "soybean plants (nod49, nod139, Bragg)", "test": "Interaction of B. japonicum inoculum titer and Nod Factor on nodule number", "type": "in vivo, Glycine max", "settings": "for nodule number: nod49, Plus NF 10^−8 M, 35 days", "text": "We tested this phenomenon by inoculating nod49 plants with different titers of B. japonicum CB1809 and observed increased partial nodulation success per plant with elevated rhizobial concentration. […] Since infection thread formation is essential for the progression of early CCDs (FIG. 4B), mutations in GmNFR1α result in non-nodulation. Thus GmNFR1α mutants, when exposed to high NF levels, form nodules via normal infection, showing that GmNFR1β suffices for all early nodule ontogeny steps."}, "[2]": {"tested_on": "soybean plants (nod49, nod139, Bragg)", "test": "Interaction of B. japonicum inoculum titer and Nod Factor on nodule number", "type": "in vivo, Glycine max", "settings": "Plus NF 10^−8 M, 35 days"}},
  "note": "Marks after values point to notes of the source that are not given here.",
  "data": [
    {"substance": "NodV-MeFuc [NF]", "values": [
      {"measurement": "nodule number", "setting": "[1]; B. japonicum CB1809 10^3 cfu·ml^−1", "result": "0.0 ^a"},
      {"measurement": "nodule number", "setting": "[1]; B. japonicum CB1809 10^7 cfu·ml^−1", "result": "0.7 ± 0.2 ^b"},
      {"measurement": "nodule number", "setting": "[1]; B. japonicum CB1809 10^10 cfu·ml^−1", "result": "2.3 ± 0.4 ^c"},
      {"measurement": "nodulation on addition of NF to the nutrient medium", "setting": "[1]; nod49 mutant plants, NF 10 nM", "result": "significantly increased"},
      {"measurement": "nodule number", "setting": "[2]; Bragg, B. japonicum CB1809 10^3 cfu·ml^−1", "result": "82.5 ± 5.0 ^d"},
      {"measurement": "nodule number", "setting": "[2]; Bragg, B. japonicum CB1809 10^7 cfu·ml^−1", "result": "101.4 ± 8.5 ^e"},
      {"measurement": "nodule number", "setting": "[2]; Bragg, B. japonicum CB1809 10^10 cfu·ml^−1", "result": "104.2 ± 6.9 ^e"},
      {"measurement": "nodule number", "setting": "[2]; nod139, B. japonicum CB1809 10^3 cfu·ml^−1", "result": "0.0 ^a"},
      {"measurement": "nodule number", "setting": "[2]; nod139, B. japonicum CB1809 10^7 cfu·ml^−1", "result": "0.0 ^a"},
      {"measurement": "nodule number", "setting": "[2]; nod139, B. japonicum CB1809 10^10 cfu·ml^−1", "result": "0.2 ± 0.2 ^a"}
    ]}
  ]
}
